Measurements taken from paper PMC10141580, “Cyclic Dichalcogenides Extend the Reach of Bioreductive Prodrugs to Harness Thiol/Disulfide Oxidoreductases: Applications to seco-Duocarmycins Targeting the Thioredoxin System” (ACS Central Science, 2023).
“And” between values parts separate entries of the source, which are not always exact repeats. Identical values can stand only once. Like-named read-outs stand apart in the source and are kept apart here.

System: panel of 140 standard cancer cell lines
Assay: ProliFiler-140 cancer cell line screen (CellTiterGlo, 72 h)
Type: cell-based
Experimental: Incubations were performed for 72 h before automated viability readout with CellTiterGlo (Figure 8).
End of Figure S11 (part 5 of 5): ProliFiler-140 cancer cell line screening for cytotoxicity of the prodrugs.
8-data-point dose response curves from CellTiter-Glo® viability readout.
ProliFiler-140 cell line panel part V

COc1cc2cc(C(=O)N3C[C@@H](CCl)c4c3cc(OC(=O)N(CCC(=O)N3CCN(C)CC3)C3CCCCC3)c3ccccc43)[nH]c2c(OC)c1OC [P-CC60-CBI-TMI]
IC50 (786-O (Kidney), read-out: IC50 [M] (ProliFiler-140)): 1.18e-07 M and 1.2e-07 M
IC50 (786-O, read-out: IC50): 1.2e-07 M
IC50 (A172 (Brain), read-out: IC50 [M] (ProliFiler-140)): 5.74e-07 M and 5.7e-07 M
IC50 (A375 (Skin), read-out: IC50 [M] (ProliFiler-140)): 1.64e-07 M and 1.6e-07 M
IC50 (A427 (Lung), read-out: IC50 [M] (ProliFiler-140)): 8.2e-07 M and 8.23e-07 M
IC50 (A431 (Skin), read-out: IC50 [M] (ProliFiler-140)): 2.62e-07 M and 2.6e-07 M
IC50 (A498 (Kidney), read-out: IC50 [M] (ProliFiler-140)): 3e-07 M
IC50 (A498, read-out: IC50): 3e-07 M
IC50 (A549 (Lung), read-out: IC50 [M] (ProliFiler-140)): 7.7e-07 M
IC50 (A549, read-out: IC50): 7.7e-07 M
IC50 (A2058 (Skin), read-out: IC50 [M] (ProliFiler-140)): 1e-07 M and 1.02e-07 M
IC50 (A2780 (Ovary), read-out: IC50 [M] (ProliFiler-140)): 8.9e-08 M and 8.89e-08 M
IC50 (AsPC-1 (Pancreas), read-out: IC50 [M] (ProliFiler-140)): 2.1e-06 M and 2.15e-06 M
IC50 (BEN (Lung), read-out: IC50 [M] (ProliFiler-140)): 1.4e-06 M and 1.42e-06 M
IC50 (BT-20 (Breast), read-out: IC50 [M] (ProliFiler-140)): 1.1e-06 M and 1.11e-06 M
IC50 (BxPC-3 (Pancreas), read-out: IC50 [M] (ProliFiler-140)): 6.62e-07 M and 6.6e-07 M
IC50 (CAKI-1, read-out: IC50): 3.3e-07 M
IC50 (COR-L279 (Lung), read-out: IC50 [M] (ProliFiler-140)): 7.4e-08 M and 7.36e-08 M
IC50 (COV434 (Ovary), read-out: IC50 [M] (ProliFiler-140)): 1.1e-07 M and 1.15e-07 M
IC50 (Caki-1 (Kidney), read-out: IC50 [M] (ProliFiler-140)): 3.29e-07 M and 3.3e-07 M
IC50 (Caki-2 (Kidney), read-out: IC50 [M] (ProliFiler-140)): 1.51e-06 M and 1.5e-06 M
IC50 (Calu-6 (Lung), read-out: IC50 [M] (ProliFiler-140)): 3.42e-07 M and 3.4e-07 M
IC50 (Colo 205 (Colon), read-out: IC50 [M] (ProliFiler-140)): 7.6e-07 M and 7.61e-07 M
IC50 (DLD-1 (Colon), read-out: IC50 [M] (ProliFiler-140)): 7.91e-07 M and 7.9e-07 M
IC50 (DU-145 (Prostate), read-out: IC50 [M] (ProliFiler-140)): 1.8e-07 M and 1.83e-07 M
IC50 (DV90 (Lung), read-out: IC50 [M] (ProliFiler-140)): 9e-08 M and 9.04e-08 M
IC50 (Detroit562 (Head/Neck), read-out: IC50 [M] (ProliFiler-140)): 3.15e-07 M and 3.2e-07 M
IC50 (EFM-19 (Breast), read-out: IC50 [M] (ProliFiler-140)): 9.6e-07 M and 9.62e-07 M
IC50 (EFM-192A (Breast), read-out: IC50 [M] (ProliFiler-140)): 1.8e-06 M and 1.78e-06 M
IC50 (EFO-27 (Ovary), read-out: IC50 [M] (ProliFiler-140)): 9e-07 M
IC50 (EPLC-272H (Lung), read-out: IC50 [M] (ProliFiler-140)): 5.08e-07 M and 5.1e-07 M
IC50 (H4 (Brain), read-out: IC50 [M] (ProliFiler-140)): 8.08e-08 M and 8.1e-08 M
IC50 (H460 (Lung), read-out: IC50 [M] (ProliFiler-140)): 5.1e-08 M and 5.12e-08 M
IC50 (H1299 (Lung), read-out: IC50 [M] (ProliFiler-140)): 7.27e-07 M and 7.3e-07 M
IC50 (H2228 (Lung), read-out: IC50 [M] (ProliFiler-140)): 3.99e-07 M and 4e-07 M
IC50 (HCC38 (Breast), read-out: IC50 [M] (ProliFiler-140)): 1.65e-07 M and 1.7e-07 M
IC50 (HCC202 (Breast), read-out: IC50 [M] (ProliFiler-140)): 9e-07 M and 8.97e-07 M
IC50 (HCC827 (Lung), read-out: IC50 [M] (ProliFiler-140)): 1.4e-06 M and 1.38e-06 M
IC50 (HCC 1569 (Breast), read-out: IC50 [M] (ProliFiler-140)): 9.9e-07 M and 9.93e-07 M
IC50 (HCT116 (Colon), read-out: IC50 [M] (ProliFiler-140)): 4.41e-07 M and 4.4e-07 M
IC50 (HCT116, read-out: IC50): 4.4e-07 M
IC50 (HCT-15 (Colon), read-out: IC50 [M] (ProliFiler-140)): 5.46e-07 M and 5.5e-07 M
IC50 (HCT-15, read-out: IC50): 5.5e-07 M
IC50 (HEC-1-A (Endometrium), read-out: IC50 [M] (ProliFiler-140)): 1.8e-06 M and 1.84e-06 M
IC50 (HEC-1-B (Endometrium), read-out: IC50 [M] (ProliFiler-140)): 3.3e-06 M and 3.29e-06 M
IC50 (HL-60 (Blood), read-out: IC50 [M] (ProliFiler-140)): 1e-07 M and 1.01e-07 M
IC50 (HL-60, read-out: IC50): 1e-07 M
IC50 (HT-29 (Colon), read-out: IC50 [M] (ProliFiler-140)): 1e-06 M and 9.98e-07 M
IC50 (HT-29, read-out: IC50): 1e-06 M
IC50 (HT-1080 (Fibrosarcoma), read-out: IC50 [M] (ProliFiler-140)): 3.2e-07 M
IC50 (Hep3B2.1-7 (Liver), read-out: IC50 [M] (ProliFiler-140)): 1.3e-06 M and 1.34e-06 M
IC50 (Hs 746T (Stomach), read-out: IC50 [M] (ProliFiler-140)): 9.9e-07 M and 9.89e-07 M
IC50 (HuH7 (Liver), read-out: IC50 [M] (ProliFiler-140)): 6.47e-07 M and 6.5e-07 M
IC50 (Hutu 80 (Duodenum), read-out: IC50 [M] (ProliFiler-140)): 5.37e-08 M and 5.4e-08 M
IC50 (Ishikawa (Endometrium), read-out: IC50 [M] (ProliFiler-140)): 2.6e-08 M and 2.61e-08 M
IC50 (J82 (Bladder), read-out: IC50 [M] (ProliFiler-140)): 7.2e-07 M
IC50 (JIMT-1 (Breast), read-out: IC50 [M] (ProliFiler-140)): 1.6e-06 M
IC50 (JVM-3 (Blood), read-out: IC50 [M] (ProliFiler-140)): 3.14e-08 M and 3.1e-08 M
IC50 (Jurkat (Blood), read-out: IC50 [M] (ProliFiler-140)): 9.37e-08 M and 9.4e-08 M
IC50 (K562 (Blood), read-out: IC50 [M] (ProliFiler-140)): 1.1e-06 M and 1.11e-06 M
IC50 (KARPAS 299 (Blood), read-out: IC50 [M] (ProliFiler-140)): 7.07e-07 M and 7.1e-07 M
IC50 (KG-1 (Blood), read-out: IC50 [M] (ProliFiler-140)): 6.22e-07 M and 6.2e-07 M
IC50 (KG-1 a (Blood), read-out: IC50 [M] (ProliFiler-140)): 5.5e-07 M
IC50 (KMS-12-BM (Blood), read-out: IC50 [M] (ProliFiler-140)): 3.43e-07 M and 3.4e-07 M
IC50 (Kato III (Stomach), read-out: IC50 [M] (ProliFiler-140)): 1.6e-06 M and 1.62e-06 M
IC50 (LN229 (Brain), read-out: IC50 [M] (ProliFiler-140)): 7.23e-07 M and 7.2e-07 M
IC50 (LOU-NH91 (Lung), read-out: IC50 [M] (ProliFiler-140)): 3.1e-07 M and 3.07e-07 M
IC50 (LOVO (Colon), read-out: IC50 [M] (ProliFiler-140)): 2.22e-07 M and 2.2e-07 M
IC50 (LP-1 (Blood), read-out: IC50 [M] (ProliFiler-140)): 7.2e-07 M and 7.16e-07 M
IC50 (LnCap (Prostate), read-out: IC50 [M] (ProliFiler-140)): 8.9e-07 M and 8.94e-07 M
IC50 (M07e (Blood), read-out: IC50 [M] (ProliFiler-140)): 1.38e-07 M and 1.4e-07 M
IC50 (MCAS (Ovary), read-out: IC50 [M] (ProliFiler-140)): 8.2e-07 M and 8.18e-07 M
IC50 (MCF-7 (Breast), read-out: IC50 [M] (ProliFiler-140)): 2.1e-07 M and 2.15e-07 M
IC50 (MDA MB 231 (Breast), read-out: IC50 [M] (ProliFiler-140)): 7.4e-07 M
IC50 (MDA MB 435 (Skin), read-out: IC50 [M] (ProliFiler-140)): 1.1e-06 M and 1.08e-06 M
IC50 (MDA-MB-468 (Breast), read-out: IC50 [M] (ProliFiler-140)): 1.5e-07 M and 1.48e-07 M
